{
  "source": "patent US6632668B2",
  "about": "“Monolayer sheet structure of primary hepatocytes obtained using a protein-phosphorylation inhibitor” (Japan as represented by the Secretary of Agency of …, priority 2000, dated 2003)",
  "key": {"primary hepatocytes": {"system": "primary hepatocytes", "test": "Monolayer formation of primary hepatocytes on collagen-coated plates, phase contrast microscope observation", "assay_type": "cell-based, rat", "conditions": "50 nM staurosporine, 4 h + 20 h standing culture", "protocol": "In order to isolate primary hepatocytes, rat livers were used and primary hepatocytes were isolated from the rat livers by ordinary methods, that was, by collagenase perfusion followed method and four subsequent low-speed centrifuge isolation. The hepatocytes were suspended in an animal cell culture medium (Williams' E medium) containing 10 nM Dexamethasone and 10% fetal bovine serum, and seeded at a cell concentration of 10×10^4 cell/cm^2 on 6-well cell culture plastic plates coated with type I collagen. For the samples to be treated, staurosporine was added to the medium to a final concentration of 50 nM. Next, they were subjected to standing culture for 4 hours at 37° C. in a CO2 incubator in the presence of 5% (v/v) CO2, and the medium was replaced with Williams' E medium containing 10 nM insulin, 10 nM dexamethasone and 0.7 μg/ml aprotinin. For the samples to be treated, staurosporine was again added to the medium to a final concentration of 50 nM. Finally, after the standing culture for 20 hours, the condition of the cells was observed through a phase contrast microscope.\nThe results in FIG. 1 show clearly that in the case of the hepatocytes not treated with staurosporine, cell aggregates are formed, which comprises intermittently linked patch-like discontinuous monolayers of one to tens of cells."}, "[1]": {"system": "primary rat hepatocytes monolayer", "test": "Dye permeation assay using transwell filters (bromphenol-blue, OD 655 nm)", "assay_type": "cell-based", "conditions": "staurosporine-treated monolayer on transwell filters", "protocol": "In parallel with Example 1 above, primary rat hepatocytes were seeded on transwell filters (3-micron pore polytetrafluoroethylene coated with type I collagen) suitable to 24-well cell culture plates, and differences in the tightness of the cell monolayer structure produced by staurosporine treatment were measured by a dye permeation assay.\nIn the dye permeation assay using transwell filters shown in A of FIG. 2, primary hepatocytes were seeded on transwell filters installed in wells on 24-well cell culture plates, and after the monolayer thereof was formed, 20 μl of dye (0.25% bromphenol-blue dye) was added to the upper liquid layer (medium) on the filter. 50 μl samples were then taken with the passage of time from the lower liquid layer (medium) on the filter at a constant temperature of 37° C., and absorbancy thereof (OD 655 nm) was measured.\nIn the results of B of FIG. 2, courses with the passage of time of dye permeation through hepatocytes layers formed by conventional methods on transwell filters are indicated by the white circles ◯, while courses of dye permeation through hepatocytes layers formed by the methods of this invention are indicated by black circles ●. […]"}},
  "data": [
    {"smiles": "CNC1CC2OC(C)(C1OC)n1c3ccccc3c3c4c(c5c6ccccc6n2c5c31)C(=O)NC4", "note": "(stereo not drawn) [staurosporine, [9S-(9a,10b,11b,13a)]-9,13-epoxy-2,3,10,11,12,13-hexahydro-10-methoxy-9-methyl-11-(methylamino)-1H,9H-diindolo[1,2,3-gh:3′,2′,1′-1m]pyrrolo[3,4-j][1,7]benzodiazonin-1-one]", "values": [
      {"measurement": "cell aggregates formed (monolayer structure)", "setting": "primary hepatocytes; phase contrast microscope x200", "result": "a confluent continuous monolayer sheet of closely adjoining cells"},
      {"measurement": "adhesion (attachment) and extension (spreading) of hepatocytes on culture substrate", "setting": "primary hepatocytes; type I collagen coated plates, versus untreated hepatocytes", "result": "improved"},
      {"measurement": "permeation of dye through hepatocytes monolayer", "setting": "[1]; 0.25% bromphenol-blue, 37° C., versus untreated cell layers", "result": "much less permeation of dye than that of the untreated cell layers"},
      {"measurement": "tightness between cells", "setting": "[1]; concluded from dye permeation", "result": "greatly enhanced"}
    ]}
  ]
}
